In US5968910A, “Compositions containing two or three inhibitors of different HIV reverse transcriptases” (priority 1994, dated 1999):
≈ marks a conversion by molar mass, not a printed value. Where two headings read alike, the source gives them in different places.

Assays:
HIV-1 RT (WT) = HIV-1 RT (WT) (Human immunodeficiency virus type 1 group M subtype B, UniProt P03366); experiment: biochemical; details: IC50, anti-HIV-1 RT (WT) activity
How it was run: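 Inhibition read as reduced incorporation of [2,8-³H]dGTP (2.95 μM) into acid-precipitable product on a poly(C).oligo(dG) template/primer (0.1 mM). Recombinant RT, test compounds in 5-fold dilutions; 30 min, 37° C, pH 7.8 Tris buffer with 5 mM Mg2+, 150 mM KCl.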

HIV-1(IIIB) (WT) = experiment: microbe, parasite or virus in culture; assay type: cell-based; details: Human immunodeficiency virus 1, IIIB, CCRF-CEM
How it was run: (§1)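 CEM cells at 250,000 cells/ml were infected with HIV-1 at 100 CCID50 per ml, then mixed with serial dilutions of test compound. After 4 days at 37° C., cultures were scored for syncytium formation.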

HIV-1/Nev (106-Ala) = experiment: Sensitivity of mutant HIV-1 strain in CEM cell cultures; assay type: cell-based; details: CEM cells, Table 1
How it was run: as §1

HIV-1/III(0.1) 103-Asn = experiment: as above; assay type: cell-based; details: Table 5
How it was run: as §1

[1] = test system: HIV-1/V(0.1) 101-Ile + 141-Glu; experiment: as above; assay type: cell-based; details: Table 5
How it was run: as §1

HIV-1/Pyr (181-Cys) = experiment: as above; assay type: cell-based; details: CEM cells, Table 1
How it was run: as §1

HIV-1/II(0.1) 100-Ile = experiment: as above; assay type: cell-based; details: Table 5
How it was run: as §1

[2] = test system: HIV-1/TSAO-m^3 T (138-Lys); experiment: as above; assay type: cell-based; details: CEM cells, Table 1
How it was run: as §1

HIV-1/B 101Glu = experiment: as above; assay type: cell-based; details: Table 5
How it was run: as §1

[3] = test system: HIV-1/TIBO R82913 (103-Asn); experiment: as above; assay type: cell-based; details: CEM cells, Table 1
How it was run: as §1

[4] = test system: HIV-1/TIBO R82150 (100-Ile); experiment: as above; assay type: cell-based; details: CEM cells, Table 1
How it was run: as §1

HIV-1/V(0.5) 103-Asn = experiment: as above; assay type: cell-based
How it was run: as §1

HIV-1/IV(0.1) 103-Thr = experiment: as above; assay type: cell-based; details: Table 5
How it was run: as §1

HIV-1/I(0.1) 103-Asn = experiment: as above; assay type: cell-based; details: Table 5
How it was run: as §1

With `Cc1cn([C@@H]2O[C@H](CO[Si](C)(C)C(C)(C)C)[C@@]3(OS(=O)(=O)C=C3N)[C@H]2O[Si](C)(C)C(C)(C)C)c(=O)n(C)c1=O` [TSAO-m^3 T] the IC50 (HIV-1 RT (WT)) was 4.6 µM, the EC50 (HIV-1(IIIB) (WT); CEM cells, Table 1, read-out: 50% Effective Concentration) was 0.03 µg/mL (≈ 0.0497 µM) and the EC50 (HIV-1(IIIB) (WT); HIV-1 (III8), Table 5, read-out: EC50) was 0.03 µg/mL (≈ 0.0497 µM). For the same compound, the “50% Effective Concentration” value (HIV-1/Nev (106-Ala)) was greater than 50 µg/mL, the EC50 (HIV-1/III(0.1) 103-Asn) was 0.20 µg/mL (≈ 0.331 µM) and the EC50 [1] was 0.06 µg/mL (≈ 0.0994 µM). For the same compound, the “50% Effective Concentration” value (HIV-1/Pyr (181-Cys)) was 3.0 µg/mL, the EC50 (HIV-1/II(0.1) 100-Ile) was 0.37 µg/mL (≈ 0.613 µM) and the “50% Effective Concentration” value [2] was greater than 50 µg/mL. For the same compound, the EC50 (HIV-1/B 101Glu) was greater than 2.5 µg/mL, the “50% Effective Concentration” value [3] was 0.15 µg/mL and the “50% Effective Concentration” value [4] was 0.05 µg/mL. For the same compound, the EC50 (HIV-1/V(0.5) 103-Asn; Table 5) was 0.30 µg/mL (≈ 0.497 µM), the “fold more inhibitory to HIV-1/III(0.1) than to HIV-1/V(0.5)” value (HIV-1/V(0.5) 103-Asn; both RT/103-Asn mutants) was “equally inhibitory to both virus mutants” and the EC50 (HIV-1/IV(0.1) 103-Thr) was 0.30 µg/mL (≈ 0.497 µM). For the same compound, the EC50 (HIV-1/I(0.1) 103-Asn) was 0.22 µg/mL (≈ 0.364 µM).
